The structures appear in SMILES notation. Values after ≈ are worked out from the molar mass of the structure shown.

For orientation: CC50 means the concentration at which the toxic effect on the cells reaches its halfway point. Lower therefore signals greater toxicity to the cells.

Data set [1] in a line: Cytotoxicity against VERO cells. It is filed as cell-based. To be noted: African green monkey, VERO cells (kidney epithelial cells).
Data set [2] relates to Mycobacterium tuberculosis H37Ra. In words: microbe, parasite or virus in culture. It is filed as cell-based.

For the molecule `CCCCN1CCN(c2nc(=O)c3cc(C(F)(F)F)cc([N+](=O)[O-])c3s2)CC1=O` [Compound 1d, 2-(4-Butyl-3-oxopiperazin-1-yl)-8-nitro-6-(trifluoromethyl)-4H-benzo[e][1,3]-thiazin-4-one], the cytotoxic concentration (CC50) in data set [1] is more than 10 µM.
`CCOC(=O)C1CCN(c2nc(=O)c3cc(C(F)(F)F)cc([N+](=O)[O-])c3s2)CC1` [Compound 2a, Ethyl 1-(8-nitro-4-oxo-6-(trifluoromethyl)-4H-benzo[e][1,3]thiazin-2-yl)piperidine-4-carboxylate]: the CC50 in data set [1] was more than 10 µM. Also, the MIC in data set [2] came to 8 nM (≈ 3.45 ng/mL).
On to `CCOC(=O)CN1CCN(c2nc(=O)c3cc(C(F)(F)F)cc([N+](=O)[O-])c3s2)CC1` [Compound 2b, Ethyl 2-(4-(8-nitro-4-oxo-6-(trifluoromethyl)-4H-benzo[e][1,3]thiazin-2-yl)-piperazin-1-yl)acetate], for which the cytotoxic concentration (CC50) in data set [1] was more than 10 µM. In data set [2], the MIC stood at 20 nM (≈ 8.93 ng/mL).
`CCOC(=O)CC1CCN(c2nc(=O)c3cc(C(F)(F)F)cc([N+](=O)[O-])c3s2)CC1` [Compound 2c, Ethyl 2-(1-(8-nitro-4-oxo-6-(trifluoromethyl)-4H-benzo[e][1,3]thiazin-2-yl)-piperidin-4-yl)acetate] came in with a cytotoxic concentration (CC50) in data set [1] of more than 10 µM. Moreover, in data set [2], the MIC was 16 nM (≈ 7.13 ng/mL).
In data set [2], `CCOC(=O)C(C)N1CCN(c2nc(=O)c3cc(C(F)(F)F)cc([N+](=O)[O-])c3s2)CC1` (stereo not shown) [Compound 2d, Ethyl 2-(4-(8-nitro-4-oxo-6-(trifluoromethyl)-4H-benzo[e][1,3]thiazin-2-yl)-piperazin-1-yl)propanoate] yielded an MIC of 8 nM (≈ 3.68 ng/mL).
For `O=C1OCCC1N1CCN(c2nc(=O)c3cc(C(F)(F)F)cc([N+](=O)[O-])c3s2)CC1` (stereo not shown) [Compound 2f, 8-Nitro-2-(4-(2-oxotetrahydrofuran-3-yl)piperazin-1-yl)-6-(tri-fluoromethyl)-4H-benzo[e][1,3]thiazin-4-one], in data set [1], the CC50 is more than 10 µM. The same molecule gave an MIC in data set [2] of 64 nM (≈ 28.4 ng/mL).
In the case of `CCCC1CC(N2CCN(c3nc(=O)c4cc(C(F)(F)F)cc([N+](=O)[O-])c4s3)CC2)C(=O)O1` (stereo not shown) [Compound 2g, 8-Nitro-2-(4-(2-oxo-5-propyltetrahydrofuran-3-yl)piperazin-1-yl)-6-(trifluoromethyl)-4H-benzo[e][1,3]thiazin-4-one], in data set [1], the CC50 is more than 10 µM. In data set [2], this molecule came in with an MIC of 16 nM (≈ 7.78 ng/mL).
In data set [2], `O=C(OC1CCN(c2nc(=O)c3cc(C(F)(F)F)cc([N+](=O)[O-])c3s2)CC1)c1ccc(F)cc1` [Compound 2h, 1-(8-Nitro-4-oxo-6-(trifluoromethyl)-4H-benzo[e][1,3]thiazin-2-yl)piperidin-4-yl 4-fluorobenzoate] displayed an MIC not above 2 nM.
Molecule `O=C(OC1CCN(c2nc(=O)c3cc(C(F)(F)F)cc([N+](=O)[O-])c3s2)CC1)c1ccccc1F` [Compound 2i, 1-(8-Nitro-4-oxo-6-(trifluoromethyl)-4H-benzo[e][1,3]thiazin-2-yl)piperidin-4-yl 2-fluorobenzoate] gave a CC50 in data set [1] of more than 10 µM. The molecule also displayed an MIC in data set [2] not above 2 nM.
On the same counts, the results for `O=C(OC1CCN(c2nc(=O)c3cc(C(F)(F)F)cc([N+](=O)[O-])c3s2)CC1)c1ccccc1Cl` [Compound 2j, 1-(8-Nitro-4-oxo-6-(trifluoromethyl)-4H-benzo[e][1,3]thiazin-2-yl)piperidin-4-yl 2-chlorobenzoate] are more than 10 µM and 8 nM (≈ 4.11 ng/mL).
For `O=c1nc(N2CCC(Oc3ccc(F)cc3)CC2)sc2c([N+](=O)[O-])cc(C(F)(F)F)cc12` [Compound 3b, 2-(4-(4-Fluorophenoxy)piperidin-1-yl)-8-nitro-6-(trifluoro-methyl)-4H-benzo[e][1,3]-thiazin-4-one], the MIC in data set [2] stood at 4 nM (≈ 1.88 ng/mL).
In turn, `O=c1nc(N2CCC(Oc3nccc(C(F)(F)F)n3)CC2)sc2c([N+](=O)[O-])cc(C(F)(F)F)cc12` [Compound 3n, 8-Nitro-6-(trifluoromethyl)-2-(4-((4-(trifluoromethyl)pyrimidin-2-yl)oxy)piperidin-1-yl)-4H-benzo[e][1,3]thiazin-4-one] returned an MIC in data set [2] of 4 nM (≈ 2.09 ng/mL).

(Values after publication PMC9078972 (RSC Advances, 2018).)
